Measurements published in US7615361B2, “Toxicity screening methods” (Ceetox, Inc., priority 2006, dated 2009).

What was measured:
H4IIE cells [1] = test: Membrane lipid peroxidation (8-isoprostane ELISA); assay type: cell-based, rat
Description: (§1) One test compound (Compound A) was received as dry powder and evaluated for potential cytotoxicity in a battery of in vitro assays. The compound was tested using both rat cardiomyocytes (CM) from rat neonates and a rat hepatoma (H4IIE) cell line. […] Camptothecin and rotenone were included as positive control compounds. The cell supernatant or the cells themselves were harvested for biochemical analysis. General cytotoxicity was evaluated by monitoring membrane integrity, mitochondrial function, cell proliferation, oxidative stress, and apoptosis. In addition, interaction with P-glycoprotein (PgP) on H4IIE cells and solubility of the test compound were also assessed. The means of each exposure group (n=3-7) were calculated for each assay performed. Intra assay variation well-to-well was typically less than 10% with plate to plate variation typically less than 20%.
(§2) Experimental Protocol: The test compound was provided and stored at 4° C. until needed. Dosing solutions were prepared in complete culture medium. The rat hepatoma (H4IIE) cell line was used as the test system.

[2] = MemTox membrane leakage (AK / α-GST); assay type: cell-based, rat; settings: rat
Description: (§3) One test compound (Compound A) was received as dry powder and evaluated for potential cytotoxicity in a battery of in vitro assays. The compound was tested using both rat cardiomyocytes (CM) from rat neonates and a rat hepatoma (H4IIE) cell line. […] The cell supernatant or the cells themselves were harvested for biochemical analysis. General cytotoxicity was evaluated by monitoring membrane integrity, mitochondrial function, cell proliferation, oxidative stress, and apoptosis. In addition, interaction with P-glycoprotein (PgP) on H4IIE cells and solubility of the test compound were also assessed. The means of each exposure group (n=3-7) were calculated for each assay performed.
as §2
Membrane Leakage (α-Glutathione S-transferase and/or Adenylate Kinase): The presence of Adenylate Kinase (AK) or α-Glutathione S-transferase (α-GST), both enzyme leakage markers, was measured in the culture medium using an activity assay for Adenylate Kinase and/or an ELISA assay for α-GST. At the end of the exposure period, the medium covering the cells in each well was removed and placed into new 96-well plates with appropriate labeling. […] Luminescence (AK) values were measured with a Packard Fusion or equivalent plate reader, and absorbance (α-GST) values were measured with a Packard SpectraCount™ or equivalent reader at 450 nm and reference absorbance at 650 nm.
Membrane Leakage (α-Glutathione S-transferase and/or Adenylate Kinase): Leakage of Adenylate Kinase or α-GST from the cell into the culture medium was determined by collecting the culture medium at the end of the exposure period. Thus, the values measured represent total enzyme leakage lost over the exposure period. The control for 100% dead or maximum enzyme release was based on cells treated with 1 mM digitonin at the time of dosing. Percent dead cells relative to digitonin treated cells was determined and then subtracted from 100% to yield the percent live cells.

H4IIE cells [3] = test: Predicted Ctox from Tox-Panel; assay type: cell-based, rat; settings: 24 HR, estimated sustained plasma concentration where toxicity would be expected in vivo
Description: Once all data for a given cluster of assays are received, the data are analyzed to obtain a detailed profile of the compound's toxicity. For example, most conveniently, the data are collated over a dose response range on a single graph. In such an embodiment, the measurement evaluated for each parameter (i.e., each indicator of cell health) at any given concentration is plotted as a percentage of a control measurement obtained in the absence of the compound. However, it should be noted that the data need not be plotted on a single graph, so long as all the parameters are analyzed collectively to yield detailed information of the effects of the concentration of the compound on the different parameters to yield an overall toxicity profile. As set forth below, this overall toxicity profile will facilitate a determination of a plasma concentration Ctox that is predicted to be toxic in vivo. Ctox represents an estimate of the sustained plasma concentration in vivo that would result in toxicity, such as hepatotoxicity or hematopoietic toxicity.
Studies such as these indicate that a preferred concentration for setting Ctox is the highest concentration at which there is no observed effect on any of the indicators being measured in the cluster analysis, especially a 24-hour cluster analysis. […] It will be apparent that 24 hour assays are more time-effective, and consequently, the 24 hour NOEL/Ctox represents a preferred data point to select as Ctox in a CATS assay. It will also be apparent that, with further time studies, it may be possible to select an equally suitable Ctox at other CATS assay time points (e.g., between 24 and 72 hours, or less than 24 hours).
In certain embodiments, the predicting comprises performing concentration response analyses of measurements from at least three separate assays that are employed in the cluster analysis. For example, in the cell health cluster, such predicting will involve monitoring the concentration response effect of the compound on a first health indicator which monitors cellular replication, a second cell health indicator which monitors mitochondrial function, and a third cell health indicator which monitors membrane integrity. Of course, it is understood that fourth, fifth, sixth or more cell health indicators also may be employed. From these concentration response analyses, the highest concentration of the chemical compound at which a measurable toxic effect of the chemical compound is not observable, i.e. NOEL, is determined and the Ctox is identified as the concentration that correlates to the NOEL. In choosing the concentrations of the compound for analysis, one of skill in the art should devise a dose response regimen which is selected to provide an indication of cell health at concentrations of at least two concentration values higher than the Ctox concentration.
The Ctox (H4IIE) value was developed using 24 hr in vitro toxicity data and was validated by retrospectively evaluating compounds across different classes of drugs in 14-day rat studies in which compounds were administered on a daily basis and pharmacokinetic data was available. […] Thus, Ctox values are only determined for the 24 hr in vitro results. The 6 hr toxicity analyses are typically not performed but are beneficial for interpretation of results when compound toxicity is high (e.g., Ctox≦20 μM).

[4] = Intracellular total glutathione (GSH); assay type: cell-based, rat; settings: rat
Description: as §3

rat cardiomyocytes = test: Membrane lipid peroxidation (8-isoprostane ELISA); assay type: cell-based
Description: as §1

[5] = H4IIE rat hepatoma cells, H4IIE, 24 HR exposure, read-out: MemTox TC50
[6] = neonatal rat cardiomyocytes, CM, 24 HR, read-out: Total GSH TC50

| Structure (SMILES) | Membrane Lipid Peroxidation (H4IIE cells [1]; rat, 24 h) | CC50 at 24 h ([2]; MemTox TC50) [µM] | Predicted Ctox (H4IIE cells [3]) [µM] | CC50 at 24 h [4] [µM] | Membrane Lipid Peroxidation (rat cardiomyocytes; rat, 24 h) | other results |
| --- | --- | --- | --- | --- | --- | --- |
| Nc1nc(NC2CC2)c2ncn([C@H]3C=C[C@@H](CO)C3)c2n1 [ABACAVIR, abacavir] | 0 | > 300 | 65 | > 300 | – | – |
| COc1cccc2c1C(=O)c1c(O)c3c(c(O)c1C2=O)C[C@@](O)(C(=O)CO)C[C@@H]3O[C@H]1C[C@H](N)[C@H](O)[C@H](C)O1 [ADRIAMYCIN, Adriamycin] | 0 | – | 1 | 1 | 0 | Membrane Lipid Peroxidation (rat cardiomyocytes; rat, 1 h): 0; Membrane Lipid Peroxidation (rat cardiomyocytes; rat, 3 h): 0; Membrane Lipid Peroxidation (rat cardiomyocytes; rat, 6 h): 0; Predicted Ctox (H4IIE cells [3]; listed as DOXORUBICIN): 7 µM; CC50 at 1 h [4]: > 300 µM; CC50 at 3 h [4]: 61 µM; CC50 at 6 h [4]: 23 µM |
| CC[C@@]1(O)C(=O)OCc2c1cc1n(c2=O)Cc2cc3ccccc3nc2-1 [CAMPTOTHECIN, Camptothecin] | – | – | 0.1 | – | – | Membrane Lipid Peroxidation (H4IIE cells [1]; H4IIE, 24 HR): 1 (1 = Modest increase with maximum values ≦15 pg/mL); Membrane Lipid Peroxidation (rat cardiomyocytes; CM, 24 HR): 0; CC50 at 24 h [2, 5]: > 300 µM; CC50 at 24 h [4, 6]: > 300 µM |
| COc1cccc2c1C(=O)c1c(O)c3c(c(O)c1C2=O)C[C@@](O)(C(C)=O)C[C@@H]3O[C@H]1C[C@H](N)[C@H](O)[C@H](C)O1 [DAUNORUBICIN, daunorubicin] | 0 | – | 3 | < 1 | 0 | CC50 at 24 h [2]: 41 µM |
| CC(C)Nc1cccnc1N1CCN(C(=O)c2cc3cc(NS(C)(=O)=O)ccc3[nH]2)CC1 [DELAVIRDINE, delavirdine] | – | > 300 | 68 | > 300 | 0 | – |
| O=C1Nc2ccc(Cl)cc2[C@@](C#CC2CC2)(C(F)(F)F)O1 [EFAVIRENZ, efavirenz] | 0 | 181 | 58 | 83 | – | – |
| COc1cccc2c1C(=O)c1c(O)c3c(c(O)c1C2=O)C[C@@](O)(C(=O)CO)C[C@@H]3O[C@H]1C[C@H](N)[C@@H](O)[C@H](C)O1 [EPIRUBICIN, epirubicin] | 0 | 37 | 8 | 13 | 0 | – |
| CC(=O)[C@]1(O)Cc2c(O)c3c(c(O)c2[C@@H](O[C@H]2C[C@H](N)[C@H](O)[C@H](C)O2)C1)C(=O)c1ccccc1C3=O [IDARUBICIN, idarubicin] | 0 | 30 | 1 | < 1 | 0 | – |
| Cc1cccc(C)c1OCC(=O)N[C@@H](Cc1ccccc1)[C@@H](O)C[C@H](Cc1ccccc1)NC(=O)[C@H](C(C)C)N1CCCNC1=O [LOPINAVIR, lopinavir] | 0 | > 300 | 60 | 69 | 0 | – |
| O=C1c2c(O)ccc(O)c2C(=O)c2c(NCCNCCO)ccc(NCCNCCO)c21 [MITOXANTRONE, mitoxantrone] | 0 | > 300 | 11 | < 1 | 0 | – |
| COc1cccc2c1C(=O)c1c(O)c3c(c(O)c1C2=O)C[C@@](O)(C(=O)CO)C[C@@H]3O[C@H]1C[C@H](N)[C@H](O[C@@H]2CCCCO2)[C@H](C)O1 [PIRARUBICIN, pirarubicin] | – | – | 5 | – | – | Membrane Lipid Peroxidation (H4IIE cells [1]; H4IIE, 24 HR): 0; Membrane Lipid Peroxidation (rat cardiomyocytes; CM, 24 HR): 0; CC50 at 24 h [2, 5]: 50 µM; CC50 at 24 h [4, 6]: 6 µM |
| C=C(C)[C@H]1Cc2c(ccc3c2O[C@@H]2COc4cc(OC)c(OC)cc4[C@@H]2C3=O)O1 [ROTENONE, Rotenone] | – | – | 0.03 | – | – | Membrane Lipid Peroxidation (H4IIE cells [1]; H4IIE, 24 HR): 2 (2 = Concentration related increase with maximum values ≧15 pg/mL); Membrane Lipid Peroxidation (rat cardiomyocytes; CM, 24 HR): 3 (3 = Concentration related increase with a maximum value ≧30 pg/mL); CC50 at 24 h ([2]; H4IIE, 24 HR exposure, read-out: MemTox TC50): 100 µM; CC50 at 24 h ([4]; CM, 24 HR, read-out: Total GSH TC50): 7 µM |
